The record followed here is US11512111B2, “Yeats inhibitors and methods of use thereof” (The University of Hong Kong, priority 2017, dated 2022).

Entries after “also recorded” stand apart in the source; their conditions may differ. Residues, ends and D or L forms follow the SMILES beside them. *: point of attachment. Oxazole(5-CO) = O=C(c1cnco1)*; Crotonyl(E) = C/C=C/C(=O)*; 2Furoyl = O=C(c1ccco1)*; Cbz = O=C(OCc1ccccc1)*; X1 = O=C(c1ccoc1)*

Holding throughout (assay type): binding
Assay [1] concerns the target T1, AF9 YEATS domain (Homo sapiens, UniProt P42568).
T1 construct: His-AF9 (1-138); His (N); made in house; host or cells: E. coli Rosetta
T1 sequence (P42568 1-138): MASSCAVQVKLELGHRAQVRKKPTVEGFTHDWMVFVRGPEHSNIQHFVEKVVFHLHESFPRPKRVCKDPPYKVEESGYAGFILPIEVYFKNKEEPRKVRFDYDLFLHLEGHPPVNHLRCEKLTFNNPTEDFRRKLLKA
Description: Photo-cross-linking-based competition assay (photoaffinity probe, click chemistry, in-gel fluorescence). The following applies: for IC50: competition with photoaffinity probe, in-gel fluorescence; for preliminary screening of competitors: inhibitory activity on AF9 YEATS domain: fluorescent signal intensity at 0.3 μM compared with peptide control. As to the method:
Mobile phase used were water with 0.1% trifluoroacetic acid (buffer A) and 90% acetonitrile in water with 0.1% trifluoroacetic acid (buffer B). The purity (>95%) and identity of peptides were confirmed by LC-MS. The inhibitory activities of the inhibitors were determined by a photo-cross-linking-based competition assay. […] The reactions were incubated for 1 h at r.t . . . . The reactions were quenched by adding 5 volumes of ice-cold acetone and placed at −20° C. overnight to precipitate proteins. After protein precipitation, samples were centrifuged at 6000×g for 5 min at 4° C. The supernatant was discarded and the pellet was washed with ice-cooled methanol twice and air-dried for 10 min. […] Samples were then resolved by SDS-PAGE. The labeled proteins were visualized by scanning the gel on a Typhoon 9410 variable mode imager (excitation 532 nm, emission filter 580 nm). A photo-cross-linking based method was used in this study to estimate inhibitory activity (FIG. 28). This method requires the use of a photoaffinity probe. The probe (probe 1 (SEQ ID NO:48), see below) is derived from a crotonylated peptide, ligand of the protein, carrying a photo-cross-linker and a terminal alkyne as bioorthogonal. The YEATS domain is incubated and bound to the probe through Kcr-dependent recognition. Upon UV-irradiation, the photo-cross-linker is activated and rapidly cross-linked to the protein, converting the non-covalent protein-probe interaction into a covalent linkage. The probe-labeled protein is subsequently conjugated to an azide-functionalized fluorescence dye (for example, rhodamine-N3, Rho-N3) via Cu(I)-catalyzed azide-alkyne cycloaddition (CuAAC, or “click” chemistry). After SDS-PAGE, the protein can be visualized by in-gel fluorescence scanning. If photo-cross-linking of the YEATS domain with photoaffinity probe is performed in the presence of an inhibitor, which occupies the Kcr binding pocket of the YEATS domain and thus inhibits the protein-probe interaction, the percentage of the YEATS domain in the sample that is labeled by the probe will be reduced. The in-gel fluorescence intensity detected will also be decreased. By varying the concentration of inhibitor added in the sample and quantifying the resulting fluorescence intensities, a competition curve of the inhibitor toward the protein-probe interaction will be obtained, which can be used to estimate the IC50 value. Due to the covalent nature of photo-cross-linking, weak protein-protein interactions can be captured and eventually visualized. The protein concentration used in the assay can be as low as several nanograms per microliter, while the fluorescence signal can still be robustly detected and quantified.

For a further assay, the target named is T2, ENL YEATS domain (Homo sapiens, UniProt Q03111).
T2 construct: His-SUMO-ENL (1-138); His (N); SUMO (N); made in house; host or cells: E. coli Rosetta
T2 sequence (Q03111 1-138): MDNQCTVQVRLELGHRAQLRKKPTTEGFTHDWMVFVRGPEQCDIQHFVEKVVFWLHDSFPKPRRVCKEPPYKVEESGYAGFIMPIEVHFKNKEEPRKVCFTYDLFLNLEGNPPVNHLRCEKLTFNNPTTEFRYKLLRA
Description: Photo-cross-linking-based competition assay. The following applies: competition with photoaffinity probe, in-gel fluorescence.

The target of assay [2] is T1, AF9 YEATS domain. Description: Isothermal titration calorimetry (ITC). The settings on record: for Kd / N (sites) / ΔS / ΔH: ITC; for binding enhancement over the native crotonyl group: ITC Kd ratio; for ΔH: Table 3. The procedure:
^1H and ^13C NMR spectra were recorded on Bruker UltraShield 400 or 600 MHz spectrometers and were calibrated using residual undeuterated solvent as an internal reference. Chemical shifts were reported in ppm, and coupling constant J was reported in Hz. Peptides were analyzed by LC-MS with an Agilent 1260 Infinity HPLC system connected to a Thermo Finnigan LCQ DecaXP MS detector. Peptides were purified on a preparative HPLC system with Waters 2535 Quaternary Gradient Module, Waters 515 HPLC pump, Waters SFO System Fluidics Organizer, and Waters 2767 Sample Manager. Photo-cross-linking was performed with an ENF-260C/FE hand-hang UV lamp (Spectroline). In-gel fluorescence scanning was performed using a Typhoon 9410 variable mode imager from GE Healthcare Life Sciences (excitation 532 nm, emission 580 nm). Images of Coomassie blue staining were acquired by MyECL Imager from Thermo Scientific. All images were processed by ImageJ software (National Institutes of Health), and contrast was adjusted appropriately. ITC experiments were performed with a MicroCal iTC200 titration calorimeter (MicroCal). IC50 and dissociation constants were fit with Origin 7.0 software package (OriginLab).
To further validate the reliability of the results obtained from the photo-cross-linking-based competition assay, we performed isothermal titration calorimetry (ITC) to determine the direct binding affinities of the inhibitors toward the AF9 YEATS domain. […] The ITC measurements were in agreement with the IC50 data, indicating the reliability of the results obtained from the photo-cross-linking-based competition assay.

Regarding `C[C@H](NC(=O)[C@@H](NC(=O)[C@H](CCC(N)=O)NC(=O)Cc1ccc2ccccc2c1)[C@@H](C)O)C(=O)N[C@@H](CCCNC(=N)N)C(=O)N[C@@H](CCCCNC(=O)c1ccco1)C(N)=O` [Compound 74], at AF9 YEATS domain [1], the IC50 is 226 nM. In addition, the “preliminary screening of competitors: inhibitory activity on AF9 YEATS domain” value on AF9 YEATS domain [1] (listed as Cbz-4) is “comparable binding affinity; also recorded: comparable inhibitory activities”.

Take “65 (Cbz-NTARK-NH2; not fully specified (residue 5); also: K5: modified crotonyl group with attached furancarbonyl side chain) [Compound 65]”: in the assay with AF9 YEATS domain [1], the “preliminary screening of competitors: inhibitory activity on AF9 YEATS domain” value is given as “activity of inhibitor drops”.

Turning to `C[C@@H]1NC(=O)[C@H]([C@H](C)O)NC(=O)[C@@H](NC(=O)OCc2ccccc2)CCCCNC(=N)NCCC[C@H](C(=O)N[C@@H](CCCCNC(=O)c2ccco2)C(N)=O)NC1=O` [Compound 78], the IC50 at ENL YEATS domain came out at 43600 nM; at AF9 YEATS domain [1], 1800 nM.

In turn, `C[C@H](NC(=O)[C@@H](NC(=O)[C@H](CCC(N)=O)NC(=O)[C@@H](N)CCCCN)[C@@H](C)O)C(=O)N[C@@H](CCCNC(=N)N)C(=O)N[C@@H](CCCCNC(=O)c1ccco1)C(=O)N[C@@H](CO)C(=O)N[C@H](C(=O)NCC(=O)NCC(N)=O)[C@@H](C)O` [Compound 7] (H-KQTARK(2Furoyl)STGG-NH2) registered an IC50 at AF9 YEATS domain [1] of 1300 nM. For the same molecule, on AF9 YEATS domain [2], the Kd worked out at 3300 nM, the “N (sites)” value came out at 0.91 ± 0.01 sites, the ΔS is recorded as −15.9 cal/mol/deg and the “binding enhancement over the native crotonyl group” value amounted to 4.5 fold. This molecule also yielded a ΔH on AF9 YEATS domain [2] of -12.23 ± 0.11 kcal/mol.

`CC(C)C[C@H](NC(=O)[C@@H](NC(=O)[C@H](CCC(N)=O)NC(=O)OCc1ccccc1)[C@@H](C)O)C(=O)N[C@@H](CCCNC(=N)N)C(=O)N[C@@H](CCCCNC(=O)c1ccco1)C(N)=O` [Compound 47] (Cbz-QTLRK(2Furoyl)-NH2; N-terminus and C-terminus assumed): the “preliminary screening of competitors: inhibitory activity on AF9 YEATS domain” value at AF9 YEATS domain [1] (listed as A7-L) is given as “comparable results; also recorded: comparable inhibitory activities”.

The molecule `C[C@H](NC(=O)[C@@H](NC(=O)[C@H](CCC(N)=O)NC(=O)[C@@H](N)CCCCN)[C@@H](C)O)C(=O)N[C@@H](CCCNC(=N)N)C(=O)N[C@@H](CCCCNC(=O)c1ccoc1)C(=O)N[C@@H](CO)C(=O)N[C@H](C(=O)NCC(=O)NCC(N)=O)[C@@H](C)O` [Compound 8] (H-KQTARK(X1)STGG-NH2) registered an IC50 on AF9 YEATS domain [1] of 1700 nM.

Take “43 (Cbz-QTAKK-NH2; not fully specified (residue 5); also: K5: modified crotonyl group with attached furancarbonyl side chain) [Compound 43]”: in the assay with AF9 YEATS domain [1], the “preliminary screening of competitors: inhibitory activity on AF9 YEATS domain” value is given as “interact with the AF9 YEATS domain weakly”.

For `C[C@H](NC(=O)[C@@H](NC(=O)[C@H](CCC(N)=O)NC(=O)[C@@H](N)CCCCN)[C@@H](C)O)C(=O)N[C@@H](CCCNC(=N)N)C(=O)N[C@@H](CCCCNC(=O)c1cnco1)C(=O)N[C@@H](CO)C(=O)N[C@H](C(=O)NCC(=O)NCC(N)=O)[C@@H](C)O` [Compound 13] (H-KQTARK(Oxazole(5-CO))STGG-NH2), at AF9 YEATS domain [1], the IC50 came out at 740 nM. On AF9 YEATS domain [2], the Kd came out at 1000 nM, the “N (sites)” value is 1.04 ± 0.02 sites, the ΔS is given as −13.8 cal/mol/deg and the “binding enhancement over the native crotonyl group” value was 14.8 fold. In addition, the ΔH at AF9 YEATS domain [2] was -12.29 ± 0.376 kcal/mol.

Take “45 (Cbz-QTAQK-NH2; not fully specified (residue 5); also: K5: modified crotonyl group with attached furancarbonyl side chain) [Compound 45]”: the “preliminary screening of competitors: inhibitory activity on AF9 YEATS domain” value with AF9 YEATS domain [1] is “interact with the AF9 YEATS domain weakly”.

Turning to `C[C@H](NC(=O)[C@@H](NC(=O)[C@@H](N)CCC(N)=O)[C@@H](C)O)C(=O)N[C@@H](CCCNC(=N)N)C(=O)N[C@@H](CCCCNC(=O)c1ccco1)C(N)=O` [Compound 24], on AF9 YEATS domain [1], the IC50 was found to be 4500 nM.

On AF9 YEATS domain [1], `C[C@H](NC(=O)[C@@H](NC(=O)[C@H](CCC(N)=O)NC(=O)OCc1ccccc1)[C@@H](C)O)C(=O)N[C@@H](CCCNC(=N)N)C(=O)N[C@@H](CCCCNC(=O)c1ccco1)C(N)=O` [peptide control] registered an IC50 of 189 nM.

For the molecule `C[C@H](NC(=O)[C@@H](NC(=O)[C@H](CCC(N)=O)NC(=O)[C@@H](N)CCCCN)[C@@H](C)O)C(=O)N[C@@H](CCCNC(=N)N)C(=O)N[C@@H](CCCCNC(=O)c1ccco1)C(N)=O` [Compound 25] (H-KQTARK(2Furoyl)-NH2; N-terminus and C-terminus assumed), the IC50 on AF9 YEATS domain [1] was found to be 460 nM.

In the case of `C/C=C/C(=O)NCCCC[C@H](NC(=O)[C@H](CCCNC(=N)N)NC(=O)[C@H](C)NC(=O)[C@@H](NC(=O)[C@H](CCC(N)=O)NC(=O)[C@@H](N)CCCCN)[C@@H](C)O)C(=O)N[C@@H](CO)C(=O)N[C@H](C(=O)NCC(=O)NCC(N)=O)[C@@H](C)O` [Compound 85, reference compound] (H-KQTARK(Crotonyl(E))STGG-NH2; N-terminus and C-terminus assumed), the IC50 at AF9 YEATS domain [1] worked out at 6000 nM. Further, on AF9 YEATS domain [2], the “N (sites)” value was 0.96 ± 0.02 sites, the ΔS is given as −17.8 cal/mol/deg and the ΔH was -11.92 ± 0.423 kcal/mol.

Take `C[C@H](NC(=O)[C@H](CO)NC(=O)[C@H](CCC(N)=O)NC(=O)OCc1ccccc1)C(=O)N[C@@H](CCCNC(=N)N)C(=O)N[C@@H](CCCCNC(=O)c1ccco1)C(N)=O` [Compound 55] (Cbz-QSARK(2Furoyl)-NH2; N-terminus and C-terminus assumed): the “preliminary screening of competitors: inhibitory activity on AF9 YEATS domain” value at AF9 YEATS domain [1] is recorded as “comparable inhibitory activities”.

Regarding `C[C@H](NC(=O)[C@H](C)NC(=O)[C@H](CCC(N)=O)NC(=O)OCc1ccccc1)C(=O)N[C@@H](CCCNC(=N)N)C(=O)N[C@@H](CCCCNC(=O)c1ccco1)C(N)=O` [Compound 53] (Cbz-QAARK(2Furoyl)-NH2; N-terminus and C-terminus assumed), at AF9 YEATS domain [1], the “preliminary screening of competitors: inhibitory activity on AF9 YEATS domain” value was “comparable inhibitory activities”.

Take `C[C@@H](O)[C@H](NC(=O)[C@H](CCC(N)=O)NC(=O)OCc1ccccc1)C(=O)N[C@@H](Cc1c[nH]c2ccccc12)C(=O)N[C@@H](CCCNC(=N)N)C(=O)N[C@@H](CCCCNC(=O)c1ccco1)C(N)=O` [Compound 49] (Cbz-QTWRK(2Furoyl)-NH2; N-terminus and C-terminus assumed): the “preliminary screening of competitors: inhibitory activity on AF9 YEATS domain” value on AF9 YEATS domain [1] (listed as A7-W) is reported as “comparable results; also recorded: comparable inhibitory activities”.
